Results as given in PMC3961306, “Comparison of the Cancer Gene Targeting and Biochemical Selectivities of All Targeted Kinase Inhibitors Approved for Clinical Use” (PLoS ONE, 2014).
Like-named read-outs stand apart in the source and are kept apart here.

Columns and labels:
[1] = tested on: forty-four human cancer cell lines; assay: Cell proliferation assay (ATPlite, 72 hours) in the 44 cell line Oncolines panel; format: cell-based; settings: for IC50: Homo sapiens
[2] = biological target: T1, panel of more than 300 wild-type and mutant kinases (313 kinase panel) (Homo sapiens, UniProt O14920); assay: Kinase profiling in a biochemical assay panel (mobility shift assays and ELISA), %-inhibition at 1 μM; selectivity entropy; settings: kinase IKKβ; compound at 1 μM
T1 sequence (O14920 1-756): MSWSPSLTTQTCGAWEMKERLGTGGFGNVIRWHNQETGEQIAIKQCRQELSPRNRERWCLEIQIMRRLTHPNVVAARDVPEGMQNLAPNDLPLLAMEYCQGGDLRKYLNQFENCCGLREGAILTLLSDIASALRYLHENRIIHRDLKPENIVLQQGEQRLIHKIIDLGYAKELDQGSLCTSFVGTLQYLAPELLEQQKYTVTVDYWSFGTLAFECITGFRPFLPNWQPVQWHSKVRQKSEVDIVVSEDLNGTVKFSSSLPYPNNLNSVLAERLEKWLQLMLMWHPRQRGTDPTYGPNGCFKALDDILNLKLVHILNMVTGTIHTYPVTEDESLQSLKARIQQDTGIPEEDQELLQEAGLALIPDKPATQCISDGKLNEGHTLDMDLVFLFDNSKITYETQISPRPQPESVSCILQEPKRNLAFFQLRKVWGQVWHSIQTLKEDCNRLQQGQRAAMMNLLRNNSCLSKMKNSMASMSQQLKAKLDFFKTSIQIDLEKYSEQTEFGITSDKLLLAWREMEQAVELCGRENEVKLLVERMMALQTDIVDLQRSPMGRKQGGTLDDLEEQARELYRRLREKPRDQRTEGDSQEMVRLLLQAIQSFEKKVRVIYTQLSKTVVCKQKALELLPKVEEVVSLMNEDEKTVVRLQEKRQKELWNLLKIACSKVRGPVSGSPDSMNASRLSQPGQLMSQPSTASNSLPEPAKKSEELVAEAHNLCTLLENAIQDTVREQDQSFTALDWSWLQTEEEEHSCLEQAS

[3] = biological target: panel of more than 300 wild-type and mutant kinases (313 kinase panel) (Homo sapiens, UniProt O95819); assay: as above; settings: kinase HGK; compound at 1 μM
[4] = biological target: panel of more than 300 wild-type and mutant kinases (313 kinase panel) (Homo sapiens, UniProt P29376); assay: as above; settings: kinase LTK; compound at 1 μM
[5] = biological target: panel of more than 300 wild-type and mutant kinases (313 kinase panel) (Homo sapiens, UniProt Q15303); assay: as above; settings: kinase HER4; compound at 1 μM
panel of more than 300 wild-type and mutant kinases (313 kinase panel) (Homo sapiens, UniProt Q15303), sequence (Q15303 26-1308, change not shown): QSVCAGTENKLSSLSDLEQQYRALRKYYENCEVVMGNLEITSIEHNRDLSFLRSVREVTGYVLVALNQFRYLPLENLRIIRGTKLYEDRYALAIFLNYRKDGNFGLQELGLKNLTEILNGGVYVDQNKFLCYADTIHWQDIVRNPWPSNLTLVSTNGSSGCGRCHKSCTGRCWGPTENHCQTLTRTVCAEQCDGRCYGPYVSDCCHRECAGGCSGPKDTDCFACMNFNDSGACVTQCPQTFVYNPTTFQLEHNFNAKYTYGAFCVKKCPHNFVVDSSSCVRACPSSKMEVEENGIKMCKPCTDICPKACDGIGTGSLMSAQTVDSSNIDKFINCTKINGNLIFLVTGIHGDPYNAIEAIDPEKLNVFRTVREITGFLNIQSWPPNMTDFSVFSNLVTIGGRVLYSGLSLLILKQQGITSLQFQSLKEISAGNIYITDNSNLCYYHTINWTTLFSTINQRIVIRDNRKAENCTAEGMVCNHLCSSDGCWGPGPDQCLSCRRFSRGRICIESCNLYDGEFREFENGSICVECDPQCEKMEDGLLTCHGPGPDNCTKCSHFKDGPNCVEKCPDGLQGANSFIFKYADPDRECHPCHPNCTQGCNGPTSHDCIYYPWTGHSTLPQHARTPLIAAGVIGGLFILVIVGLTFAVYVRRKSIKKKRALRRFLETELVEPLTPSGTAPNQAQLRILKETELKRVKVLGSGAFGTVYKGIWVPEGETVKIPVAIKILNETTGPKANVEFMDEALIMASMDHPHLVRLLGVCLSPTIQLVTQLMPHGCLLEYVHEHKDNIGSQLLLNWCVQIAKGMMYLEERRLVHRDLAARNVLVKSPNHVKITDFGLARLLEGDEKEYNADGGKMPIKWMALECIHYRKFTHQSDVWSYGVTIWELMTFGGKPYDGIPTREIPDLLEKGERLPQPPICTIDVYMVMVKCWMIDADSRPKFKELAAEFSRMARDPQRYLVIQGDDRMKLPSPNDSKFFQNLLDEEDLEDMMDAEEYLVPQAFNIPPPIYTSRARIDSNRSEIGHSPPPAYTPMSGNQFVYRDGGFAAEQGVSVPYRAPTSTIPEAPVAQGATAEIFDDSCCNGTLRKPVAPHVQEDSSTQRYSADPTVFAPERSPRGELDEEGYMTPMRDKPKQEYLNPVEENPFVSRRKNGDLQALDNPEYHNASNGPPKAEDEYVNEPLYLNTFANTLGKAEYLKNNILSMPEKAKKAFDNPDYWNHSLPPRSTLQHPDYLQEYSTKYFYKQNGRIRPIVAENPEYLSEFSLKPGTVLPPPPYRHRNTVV

[6] = biological target: T2, panel of more than 300 wild-type and mutant kinases (313 kinase panel) (Homo sapiens, UniProt Q96PF2); assay: as above; settings: kinase TSSK2; 1 μM
T2 sequence (Q96PF2 1-358): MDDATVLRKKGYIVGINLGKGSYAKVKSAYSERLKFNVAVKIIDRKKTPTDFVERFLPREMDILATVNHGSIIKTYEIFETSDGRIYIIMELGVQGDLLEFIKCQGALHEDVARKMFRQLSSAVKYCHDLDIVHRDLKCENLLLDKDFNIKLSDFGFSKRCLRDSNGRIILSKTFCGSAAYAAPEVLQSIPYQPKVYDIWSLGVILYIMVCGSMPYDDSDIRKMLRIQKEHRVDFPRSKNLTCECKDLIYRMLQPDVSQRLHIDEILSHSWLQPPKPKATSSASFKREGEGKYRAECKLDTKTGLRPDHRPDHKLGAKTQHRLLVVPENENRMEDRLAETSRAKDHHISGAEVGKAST

[7] = biological target: panel of more than 300 wild-type and mutant kinases (313 kinase panel) (Homo sapiens, UniProt Q9H1R3); assay: as above; settings: kinase skMLCK; 1 μM
[8] = biological target: panel of more than 300 wild-type and mutant kinases (313 kinase panel) (Homo sapiens, UniProt Q13177); assay: as above; settings: kinase PAK2; 1 μM
[9] = 4-4 cell, read-out: cell panel IC50, J82
[10] = 4-4 cell, read-out: cell panel IC50, PA-1
[11] = 4-4 cell, read-out: cell panel IC50, SJCRH30
[12] = 4-4 cell, read-out: cell panel IC50, SR
[13] = 769-P, read-out: cell panel IC50, 769-P
[14] = 786-0, read-out: cell panel IC50, 786-0
[15] = A 172, read-out: cell panel IC50, A-172
[16] = A204, read-out: cell panel IC50, A-204
[17] = A498, read-out: cell panel IC50, A-498
[18] = A549, read-out: cell panel IC50, A-549
[19] = A-375, read-out: cell panel IC50, A375
[20] = A-427, read-out: cell panel IC50, A-427
[21] = ACHN, read-out: cell panel IC50, ACHN
[22] = AN3-CA, read-out: cell panel IC50, AN3 CA
[23] = AU565, read-out: cell panel IC50, AU-565
[24] = BT-20, read-out: cell panel IC50, BT-20
[25] = BT-549, read-out: cell panel IC50, BT-549
[26] = BXPC-3, read-out: cell panel IC50, BxPC-3
[27] = C-33-A, read-out: cell panel IC50, C-33 A
[28] = CAL-27, read-out: cell panel IC50, CAL 27
[29] = CCRF-CEM, read-out: cell panel IC50, CCRF-CEM
[30] = DLD-1, read-out: cell panel IC50, DLD-1
[31] = FaDu, read-out: cell panel IC50, FaDu
[32] = HCT-15, read-out: cell panel IC50, HCT-15
[33] = HCT-116, read-out: cell panel IC50, HCT-116
[34] = Hs-578T, read-out: cell panel IC50, Hs 578T
[35] = Jurkat E6.1, read-out: cell panel IC50, Jurkat E6.1
[36] = K562, read-out: cell panel IC50, K-562
[37] = LS174T, read-out: cell panel IC50, LS 174T
[38] = LoVo, read-out: cell panel IC50, LoVo
[39] = MG-63, read-out: cell panel IC50, MG-63
[40] = MOLT-4, read-out: cell panel IC50, MOLT-4
[41] = MeWo, read-out: cell panel IC50, MeWo
[42] = NCI-H82, read-out: cell panel IC50, NCI-H82
[43] = NCI-H460, read-out: cell panel IC50, NCI-H460
[44] = OVCAR-3, read-out: cell panel IC50, OVCAR-3
[45] = RPMI-7951, read-out: cell panel IC50, RPMI-7951
[46] = SHP77, read-out: cell panel IC50, SHP-77
[47] = SK-N-AS, read-out: cell panel IC50, SK-N-AS
[48] = SW48, read-out: cell panel IC50, SW48
[49] = SW480, read-out: cell panel IC50, SW480
[50] = SW-620, read-out: cell panel IC50, SW620
[51] = U2OS, read-out: cell panel IC50, U-2 OS
[52] = U-87 MG, 72 h, read-out: IC50 in cell proliferation assay (table S5 cellpanel data)

COc1cc(Nc2c(C#N)cnc3cc(OCCCN4CCN(C)CC4)c(OC)cc23)c(Cl)cc1Cl [bosutinib]
IC50 [1, 9]: 4470 nM | IC50 [1, 10]: 1260 nM | IC50 [1, 11]: 4390 nM | IC50 [1, 12]: 983 nM | IC50 [1, 13]: 1240 nM | IC50 [1, 14]: 2200 nM | IC50 [1, 15]: 3690 nM | IC50 [1, 16]: 5690 nM | IC50 [1, 17]: 1510 nM | IC50 [1, 18]: 2380 nM | IC50 [1, 19]: 2000 nM | IC50 [1, 20]: 2320 nM | IC50 [1, 21]: 808 nM | IC50 [1, 22]: 8020 nM | IC50 [1, 23]: 4030 nM | IC50 [1, 24]: 9000 nM | IC50 [1, 25]: 4940 nM | IC50 [1, 26]: 2740 nM | IC50 [1, 27]: 108 nM | IC50 [1, 28]: 1690 nM | IC50 [1, 29]: 3550 nM | IC50 [1, 30]: 2250 nM | IC50 [1, 31]: 1930 nM | IC50 [1, 32]: 2050 nM | IC50 [1, 33]: 2900 nM | IC50 [1, 34]: 3630 nM | IC50 [1, 35]: 466 nM | IC50 [1, 36]: 14 nM | IC50 [1, 37]: 1180 nM | IC50 [1, 38]: 811 nM | IC50 [1, 39]: 4210 nM | IC50 [1, 40]: 1290 nM | IC50 [1, 41]: 5600 nM | IC50 [1, 42]: 3500 nM | IC50 [1, 43]: 3720 nM | IC50 [1, 44]: 3030 nM | IC50 [1, 45]: 3230 nM | IC50 [1, 46]: 11500 nM | IC50 [1, 47]: 923 nM | IC50 [1, 48]: 11700 nM | IC50 [1, 49]: 10500 nM | IC50 [1, 50]: 10600 nM | IC50 [1, 51]: 2620 nM | IC50 [1, 52]: 6950 nM | %-inhibition of IKKβ [2]: -6% | %-inhibition of HGK [3]: 100% | %-inhibition of LTK [4]: 59% | %-inhibition of HER4 [5]: 102% | %-inhibition of TSSK2 [6]: -9% | %-inhibition of skMLCK [7]: 71%

Cc1nc(Nc2ncc(C(=O)Nc3c(C)cccc3Cl)s2)cc(N2CCN(CCO)CC2)n1 [dasatinib]
Difference between the average IC50 in the cell panel and the most potent IC50 ([1]; 44 cell line panel, Figure 2D): more than 1000 fold | IC50 [1, 9]: 2500 nM | IC50 [1, 10]: 55 nM | IC50 [1, 11]: 1290 nM | IC50 [1, 12]: 3000 nM | IC50 [1, 13]: 55 nM | IC50 [1, 14]: 359 nM | IC50 [1, 15]: 99 nM | IC50 [1, 16]: 21 nM | IC50 [1, 17]: 681 nM | IC50 [1, 18]: 10200 nM | IC50 [1, 19]: 518 nM | IC50 [1, 20]: 2180 nM | IC50 [1, 21]: 48 nM | IC50 [1, 22]: 3550 nM | IC50 [1, 23]: 7070 nM | IC50 [1, 24]: 9800 nM | IC50 [1, 25]: 143 nM | IC50 [1, 26]: 204 nM | IC50 [1, 27]: 9 nM | IC50 [1, 28]: 153 nM | IC50 [1, 29]: 7190 nM | IC50 [1, 30]: 3400 nM | IC50 [1, 31]: 446 nM | IC50 [1, 32]: 1680 nM | IC50 [1, 33]: 14200 nM | IC50 [1, 34]: 79 nM | IC50 [1, 35]: 2390 nM | IC50 [1, 36]: 0.47 nM | IC50 [1, 37]: 3500 nM | IC50 [1, 38]: 1580 nM | IC50 [1, 39]: > 10000 nM | IC50 [1, 40]: 862 nM | IC50 [1, 41]: 17000 nM | IC50 [1, 42]: 10300 nM | IC50 [1, 43]: 19000 nM | IC50 [1, 44]: 120 nM | IC50 [1, 45]: 34 nM | IC50 [1, 46]: > 31600 nM | IC50 [1, 47]: 636 nM | IC50 [1, 48]: > 31600 nM | IC50 [1, 49]: 2100 nM | IC50 [1, 50]: 12400 nM | IC50 [1, 51]: 3230 nM | IC50 [1, 52]: 14900 nM | %-inhibition of HGK [3]: 78% | %-inhibition of PAK2 [8]: 0.254% | %-inhibition of HER4 [5]: 103%
